Measured values published in PubChem BioAssay (NCI).
Where “and” joins values, the source holds several entries; their conditions need not be identical. Identical values can stand only once.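 These data come from cells grown in 96-well plates and exposed to compound for 48 hours at five concentrations. The concentration for 50% growth inhibition is given as GI50. TGI: concentration producing complete growth inhibition.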

Legend:
Assay in all cases: NCI anticancer screen, dose series, 48 h
A498 renal = system: A498 renal
EKVX NSCLC = system: EKVX NSCLC
HOP-62 NSCLC = system: HOP-62 NSCLC
HS 578T breast = system: HS 578T breast
HT29 colon = system: HT29 colon
MCF7 breast = system: MCF7 breast
OVCAR-4 ovarian = system: OVCAR-4 ovarian
RXF 393 renal = system: RXF 393 renal
SK-MEL-2 melanoma = system: SK-MEL-2 melanoma
UACC-257 melanoma = system: UACC-257 melanoma

Row | Structure (SMILES) | TGI (A498 renal) | TGI (EKVX NSCLC) [µM] | TGI (HOP-62 NSCLC) [µM] | TGI (HS 578T breast) [µM] | TGI (HT29 colon) [µM] | TGI (MCF7 breast) [µM] | TGI (OVCAR-4 ovarian) [µM] | TGI (RXF 393 renal) | TGI (SK-MEL-2 melanoma) [µM] | TGI (UACC-257 melanoma) | GI50 (A498 renal) [µM] | GI50 (HOP-62 NSCLC) | GI50 (RXF 393 renal) | GI50 (UACC-257 melanoma)
1 | COc1c(O)c2c(=O)cc(OC)c3c4c(OC)cc(=O)c5c(O)c(OC)c6c(c(c1C(C(C)O)C6C(C)O)c23)c54 (stereo not drawn) | 3.45 µM | 3.56 | 2.02 | 6.07 | 3.71 | 4.04 | 4.96 | 1.76 µM | 3.73 |  |  |  |  | 
2 | N#Cc1c(-c2ccccc2)cc(-c2ccc(Cl)cc2)[nH]c1=S | 63.5 µM | 70.4 | > 100 | > 100 | > 100 | 53.1 | > 100 | > 100 µM |  |  |  |  |  | 
3 | CCCCn1c(-c2ccc([N+](=O)[O-])cc2)cs/c1=N/N=C1\C(=O)Nc2ccc(Br)cc21 | 34.3 µM | 79.3 | 37.9 | > 100 | 33.1 | 17.7 | 31.8 | 22.5 µM |  | 47.2 µM |  |  |  | 
4 | COc1ccc(NC(=S)NC(=O)c2ccc3c(c2)Sc2ccccc2O3)c([N+](=O)[O-])c1 | 38.2 µM |  | > 100 | 43.2 | > 100 | > 100 | 91 | 75.6 µM | 96.2 | > 100 µM |  |  |  | 
5 | O=C(N/N=C/c1ccc(Br)cc1)N/N=C/c1ccc(Br)cc1 |  | 31.3 | 17.5 | 10.8 | 26 | > 100 | 5.11 | 40.5 µM | > 100 | 40.2 µM |  |  |  | 
6 | COC(=O)C1(Cc2ccc3c(c2)CCC3)Cc2ccccc2C1 | > 100 µM | > 100 | > 100 | > 100 | 65 | > 100 | 62.8 |  | 72 | > 100 µM |  |  |  | 
7 | CC(=O)OCc1c(O)c2c(c(O)c1COC(C)=O)C(=O)C=CC2=O | 34.7 µM | 32 | 37.4 |  | 31.6 |  | 22.7 |  | 8.84 | 20.1 µM |  |  |  | 
8 | O=c1cc(-c2ccccc2)oc2c(-c3cc(Cl)cc4c(=O)cc(-c5ccccc5)oc34)cc(Cl)cc12 | 56.7 µM | > 100 | > 100 | > 100 | > 100 | > 100 | > 100 | > 100 µM | > 100 |  |  |  |  | 
9 | O=c1[nH]c(=O)n(C2CC(O)C(CO)O2)cc1OCc1ccccc1 (stereo not drawn) |  | > 100 | > 100 | > 100 | > 100 | > 100 | > 100 | > 100 µM |  | > 100 µM |  |  |  | 
10 | CCOC(=O)/C(O)=C1\C(=O)N(C)C(=O)C1c1cccc(OC)c1 (stereo not drawn) | > 100 µM | > 100 | > 100 |  | > 100 | > 100 | > 100 | > 100 µM | > 100 | > 100 µM |  |  |  | 
11 | O=c1[nH]c(Nc2cccc(CO)c2)nc2nc[nH]c12 |  | > 100 | > 100 | > 100 | > 100 | > 100 | > 100 | > 100 µM | > 100 | > 100 µM |  |  |  | 
12 | OCc1ccc2c(c1)CC1(Cc3ccc(/C=N/O)cc3C1)C2 (stereo not drawn) | 96.5 µM | > 100 | > 76.7 | > 26.4 | 11.4 |  | > 61.7 |  | 42.3 | 18.7 µM |  |  |  | 
13 | O=C(Nc1noc(-c2ccccc2)n1)c1ccccc1CNc1noc(-c2ccccc2)n1 | > 100 µM | > 100 | > 100 | > 100 | > 100 | > 100 | > 100 | > 100 µM |  | > 100 µM |  |  |  | 
14 | CN(C)CCNC(=O)c1cccc2nc(-c3ccccc3)oc12 | > 94.3 µM | > 55.8 | > 100 |  | > 100 | 28.2 | > 100 | > 100 µM | > 100 | 98.1 µM |  |  |  | 
15 | CCCSc1nc(-c2ccc(OC)cc2)c(C#N)c(=O)n1C1OC(COC(C)=O)C(OC(C)=O)C(OC(C)=O)C1OC(C)=O (stereo not drawn) | > 100 µM and 78.2 µM |  | > 100 |  | > 100 |  | > 100 | > 100 µM and 61.2 µM | > 100 | > 100 µM and 56.6 µM | 20.9 | > 100 µM and 30.1 µM | > 100 µM and 17.2 µM | > 100 µM and 22.4 µM
16 | C[C@H]1SC(c2ccc(Cl)cc2Cl)N(NC(=O)c2ccncc2)C1=O (stereo partly drawn) | 78.4 µM | 98.8 | 94.3 | > 100 | > 100 | > 100 |  | 61.2 µM | 58.3 |  |  |  |  | 
17 | CC(=O)OC1C(COC(=O)c2ccccc2)OC(Nc2ncc(-c3ccc(Br)cc3)s2)C(OC(=O)c2ccccc2)C1OC(=O)c1ccccc1 (stereo not drawn) |  | > 100 | > 100 | > 100 | > 100 | > 100 | > 100 | > 100 µM | 35.3 | > 100 µM |  |  |  | 
18 | CC1(C)[C@H]2CC[C@@]13C(=O)N1C(=O)O[C@@H]([C@H]1Cl)C(Cl)(COCc1ccccc1)C(=O)OCCO[C@H]3C2 (stereo partly drawn) | > 100 µM | > 100 | > 100 | > 100 | > 100 | > 100 | > 100 |  | > 100 | > 100 µM |  |  |  | 

Row | Structure (SMILES) | TGI (A498 renal) | TGI (EKVX NSCLC) [µM] | TGI (HOP-62 NSCLC) [µM] | TGI (HS 578T breast) [µM] | TGI (HT29 colon) [µM] | TGI (MCF7 breast) [µM] | TGI (OVCAR-4 ovarian) [µM] | TGI (RXF 393 renal) | TGI (SK-MEL-2 melanoma) [µM] | TGI (UACC-257 melanoma) | GI50 (A498 renal) [µM] | GI50 (HOP-62 NSCLC) | GI50 (RXF 393 renal) | GI50 (UACC-257 melanoma)
19 | O=c1cc(N2CCCC2)[nH]c(=O)n1-c1ccccc1 |  | > 100 | > 100 |  | > 100 | > 100 | > 100 |  | > 100 | > 100 µM |  |  |  | 
20 | CCOC(=O)c1nnsc1NN |  | > 100 | > 100 | > 100 | > 100 | > 100 | > 100 | > 100 µM | > 100 | > 100 µM |  |  |  | 
21 | NS(=O)(=O)c1cccc(NC(=S)NC(=O)Nc2ccc(Cl)c(Cl)c2)c1 | 26.3 µM |  | 30.9 | 45.6 | 86.6 | 37.1 | 76.9 | 58.9 µM | 40.2 | > 100 µM |  |  |  | 
22 | CC12CCCC3(CC(=O)C(C)(C)C3C(=O)C1)C2 (stereo not drawn) |  | > 100 | > 100 | > 100 | > 100 | > 100 | > 100 |  | > 100 | > 100 µM |  |  |  | 
23 | COC(=O)[C@H](Cc1ccccc1)NC(=O)CCCCCCC(=O)NO |  | > 100 |  | > 100 | > 100 | > 100 | > 100 | 32.3 µM | 23.8 | 45.4 µM |  |  |  | 
24 | C=C1c2nc3ccccc3n2C=C(c2ccc(Cl)cc2)N1c1ccc(OC)cc1 | > 100 µM | 25.9 |  |  |  | 31.8 | 46.2 | 21.6 µM | 66.5 | 30.5 µM |  |  |  | 
25 | CSc1n[nH]c(N)c1C(=O)Nc1ccccc1 | > 100 µM | > 100 |  | > 100 | > 100 | > 100 | > 100 | > 100 µM | > 100 | > 100 µM |  |  |  | 
26 | CCOP(=O)(/C=C\n1ccc(N)nc1=O)OCC |  | > 100 | > 100 | > 100 | > 100 | > 100 | > 100 | > 100 µM | > 100 | > 100 µM |  |  |  | 
27 | CN(C)CCC(=O)/C=C\c1ccccc1 | 39.5 µM | 33.9 | > 100 |  | 39.2 |  | 33.3 | 29.2 µM |  | 31.5 µM |  |  |  | 
28 | CCOC(=O)C#Cc1ccccc1 | 75.3 µM | 10.9 | 46.3 | 82.3 | 21.4 | 75.2 | 11.7 |  | 5.86 | > 100 µM |  |  |  | 
29 | COc1ccc(C2c3cc4c(cc3OC(N3CCOCC3)C2C)OCO4)c(OC)c1OC (stereo not drawn) |  | > 100 | > 100 | 19.2 | 52.2 | 80.2 |  |  | 36.2 | 82.2 µM |  |  |  | 
30 | O=c1[nH]nc(Cc2ccccc2)n1/N=C/c1ccncc1 | > 100 µM | > 100 | > 100 | > 100 | > 100 | > 100 | > 100 | > 100 µM |  | > 100 µM |  |  |  | 
31 | CCOC(=O)C1CCC(=O)N1C(=O)c1ccccc1 (stereo not drawn) | > 100 µM | > 100 | > 100 | > 100 | > 100 | > 100 |  | > 100 µM |  | > 100 µM |  |  |  | 
32 | N#Cc1nc(NC(=O)c2ccccc2C(=O)O)c(C#N)[nH]1 | > 100 µM | > 100 | > 100 | > 100 | > 100 | > 100 |  |  | > 100 | > 100 µM |  |  |  | 
33 | COc1cc(NC(C)=O)ccc1C(=O)NN1C(=O)/C(=C/c2ccco2)N=C1c1ccccc1 | > 50 µM | > 50 | > 50 | > 50 | > 50 | > 50 | > 50 | > 50 µM | > 50 |  |  |  |  | 
34 | Cc1ccc(C2=CC(=O)/C(=C\C(=O)c3ccc(Cl)cc3)O2)cc1 | 71.8 µM | > 100 | > 100 | 55.1 | 15.1 | 25.6 | 33.5 | 18.6 µM |  | 4.75 µM |  |  |  | 
35 | COc1cc2c(c(O)c1OC)C(=O)C(Cc1ccc(O)cc1)CO2 (stereo not drawn) |  |  | > 100 | 36.5 | > 100 | 8.65 | > 100 | 54 µM | > 100 | > 100 µM |  |  |  | 
